# Values quoted from earlier work in PMC12080252, “Daphnia magna as an Alternative Model for (Simultaneous) Bioaccumulation and Chronic Toxicity Assessment—Controlled Exposure Study Indicates High Hazard of Heterocyclic PAHs” (Environmental Science & Technology, 2025).
# Legend:
# D. magna or D. pulex = settings: D. magna or D. pulex; ref SI refs 8, 10; cited from earlier work
# D. magna = settings: Table S1; footnote not given; cited from earlier work
# fish = settings: cited from earlier work
Structure (SMILES),half-life (D. magna or D. pulex),log k2 (D. magna or D. pulex),lowest PNEC* (D. magna),bioaccumulation in fish (fish)
c1ccc2nc3ccc4ccccc4c3cc2c1 [benz(a)acridine],1.2 h,-0.24 h-1,0.016 µg/L,–
c1ccc2c(c1)sc1ccccc12 [dibenzothiophene],–,–,0.24 µg/L,high bioaccumulation in fish
c1ccc2c(c1)Cc1ccccc1S2 [thioxanthene],–,–,0.32 µg/L,–
